Measurements as given in patent publication US20240270821A1, “GIP/GLP1/GCG TRI-RECEPTOR AGONISTS AND USES THEREOF” (priority 2023, published 2024).
pEC50: −log10 of the molar value. Read-outs that look alike come from different tables or passages of the source. Starred links: 1 amine or outer side, 2 acyl side, 3 side chain; linkers in the order of their positions; H or OH if unused. Non-standard residues stand in square brackets, D forms with d. Groups on a side chain read outwards from the residue. No end group written: not given here. *: point of attachment. C18 diacid = O=C(O)CCCCCCCCCCCCCCCCC(=O)*; αMePhe(2-F) = C[C@](N)(Cc1ccccc1F)C(=O)O; γGlu = O=C(O)[C@H](CCC(=O)[*:2])N[*:1]; NMeY = CN[C@@H](Cc1ccc(O)cc1)C(=O)O; αMe4Pal = C[C@](N)(Cc1ccncc1)C(=O)O; αMeY = C[C@](N)(Cc1ccc(O)cc1)C(=O)O; 4Pal = N[C@@H](Cc1ccncc1)C(=O)O; αMeL = CC(C)C[C@](C)(N)C(=O)O; αMeS = C[C@](N)(CO)C(=O)O; Orn = NCCC[C@H](N)C(=O)O; AEEA = NCCOCCOCC(=O)O; Aib = CC(C)(N)C(=O)O

How the values were obtained:
Format in all cases: cell-based
hGIPR [1] = molecular target: T1, hGIPR (Homo sapiens, UniProt P48546); assay: Functional cAMP activation in the presence of 0.1% casein (no HSA); settings: read-out: Relative cAMP EC50, hGIPR;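 note: intracellular cAMP rise after 30 min at 37 °C read by HTRF against a standard curve, scaled between buffer alone (0%) and top control ligand concentration (100%), four-parameter fit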
T1 sequence (P48546 22-466): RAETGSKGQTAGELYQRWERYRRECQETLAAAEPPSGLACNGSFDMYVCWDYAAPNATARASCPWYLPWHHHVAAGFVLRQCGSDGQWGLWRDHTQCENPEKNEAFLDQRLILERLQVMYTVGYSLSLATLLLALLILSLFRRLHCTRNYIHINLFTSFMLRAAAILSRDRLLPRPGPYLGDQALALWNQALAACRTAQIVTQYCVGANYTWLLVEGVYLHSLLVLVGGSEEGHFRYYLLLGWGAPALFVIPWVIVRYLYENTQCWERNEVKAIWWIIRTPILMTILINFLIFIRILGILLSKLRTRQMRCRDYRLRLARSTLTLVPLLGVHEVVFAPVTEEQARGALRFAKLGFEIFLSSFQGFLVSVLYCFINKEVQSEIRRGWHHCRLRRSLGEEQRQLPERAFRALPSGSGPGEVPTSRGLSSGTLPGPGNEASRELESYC

human GcgR = human GcgR (Homo sapiens, UniProt P47871); assay: Functional cAMP activity in the presence of 1% HSA; settings: read-out: cAMP Rel EC50, hGcgR
Chain of human GcgR (P47871 26-477): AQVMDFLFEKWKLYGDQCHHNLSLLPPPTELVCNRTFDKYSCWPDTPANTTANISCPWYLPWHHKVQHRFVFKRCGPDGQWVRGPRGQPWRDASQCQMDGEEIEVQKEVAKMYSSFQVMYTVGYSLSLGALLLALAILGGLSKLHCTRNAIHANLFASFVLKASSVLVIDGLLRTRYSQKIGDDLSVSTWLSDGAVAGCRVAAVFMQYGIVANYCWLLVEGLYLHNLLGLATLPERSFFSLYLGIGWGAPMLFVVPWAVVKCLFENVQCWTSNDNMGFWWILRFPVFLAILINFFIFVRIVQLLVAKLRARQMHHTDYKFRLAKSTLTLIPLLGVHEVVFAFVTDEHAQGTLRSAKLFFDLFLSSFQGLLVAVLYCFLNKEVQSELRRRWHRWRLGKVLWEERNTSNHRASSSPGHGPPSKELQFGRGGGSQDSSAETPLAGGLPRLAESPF

hGcgR = hGcgR (Homo sapiens, UniProt P47871); assay: Functional cAMP activation in the presence of 0.1% casein (no HSA); settings: read-out: Relative cAMP EC50, hGcgR;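 note: intracellular cAMP rise after 30 min at 37 °C, read by HTRF against a cAMP standard curve, scaled from buffer only (0%) to maximal control ligand response (100%)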
Chain of hGcgR (P47871 26-477): as above

hGIPR [2] = molecular target: T1, hGIPR; assay: Functional cAMP activity in the presence of 1% HSA; settings: read-out: cAMP Rel EC50, hGIPR
hGLP-1R [3] = molecular target: T2, hGLP-1R (Homo sapiens, UniProt P43220); assay: Functional cAMP activity in the presence of 1% HSA; settings: read-out: cAMP Rel EC50, hGLP-1R
T2 sequence (P43220 24-463): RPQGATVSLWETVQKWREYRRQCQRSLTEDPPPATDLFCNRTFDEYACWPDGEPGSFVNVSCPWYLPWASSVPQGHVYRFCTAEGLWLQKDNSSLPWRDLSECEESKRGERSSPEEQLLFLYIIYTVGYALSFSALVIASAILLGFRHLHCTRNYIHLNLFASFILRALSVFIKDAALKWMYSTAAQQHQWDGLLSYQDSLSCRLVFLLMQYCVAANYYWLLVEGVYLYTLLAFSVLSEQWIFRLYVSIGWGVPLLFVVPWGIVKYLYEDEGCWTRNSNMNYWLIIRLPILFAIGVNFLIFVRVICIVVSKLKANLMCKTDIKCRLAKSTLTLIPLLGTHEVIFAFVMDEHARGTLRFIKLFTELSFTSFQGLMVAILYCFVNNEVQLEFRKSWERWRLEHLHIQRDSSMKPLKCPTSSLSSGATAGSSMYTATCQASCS

hGLP-1R [4] = molecular target: T2, hGLP-1R; assay: Functional cAMP activation in the presence of 0.1% casein (no HSA); settings: read-out: Relative cAMP EC50, hGLP-1R;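 note: intracellular cAMP rise after 30 min at 37 °C read by HTRF, normalized between buffer only (0%) and maximal control ligand (100%), four-parameter variable-slope fit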
[5] = in the presence of 0.1% casein (no HSA), geometric mean
[6] = 0.1% casein, no HSA, geometric mean

Substance	pEC50 (hGIPR [1]; [5])	pEC50 (human GcgR)	pEC50 (hGcgR; [5])	pEC50 (hGIPR [2])	pEC50 (hGLP-1R [3])	pEC50 (hGLP-1R [4]; [5])	pEC50 (hGIPR [1])	pEC50 (hGcgR)	pEC50 (hGLP-1R [4])	pEC50 (hGIPR [1]; [6])	pEC50 (hGcgR; [6])	pEC50 (hGLP-1R [4]; [6])
Y[Aib]QGT[αMePhe(2-F)]TSD[4Pal][αMeS]I[αMeL]LD[Orn]K([γGlu-γGlu-C18 diacid])AQ[αMe4Pal]EFI[dE][αMeY]LVEGGPSSGAPPPSGSE-NH2 [Example 1162]	11.09	6.70	8.59	9.18	7.46	9.43						
Y[Aib]QGT[αMePhe(2-F)]TSD[4Pal][αMeS]I[αMeL]LD[Orn]K([γGlu-γGlu-C18 diacid])AQ[αMe4Pal]EFI[dE][αMeY]LVEGGPSSGEPPPSGSEE-NH2 [Example 740]		6.74		9.20	7.53		10.92	8.27	9.34			
Y[Aib]QGT[αMePhe(2-F)]TSD[4Pal][αMeS]I[αMeL]LD[Orn]QAQ[αMe4Pal]EFI[dE][αMeY]LIEGGPSSGAPPPSGGGE-NH2 [Example 1234]		7.93		10.96	8.94					10.87	7.94	8.93
Y[Aib]QGT[αMePhe(2-F)]TSD[4Pal][αMeS]I[αMeL]LD[Orn][Orn]([AEEA-γGlu-C18 diacid])AQ[αMe4Pal]EFI[dE][αMeY]LVEGGPSSGAPPPSGS-NH2 [Example 1210]		6.54		9.20	7.42					11.15	8.65	9.43
Y[Aib]QGT[αMePhe(2-F)]TSD[4Pal][αMeS]I[αMeL]LE[Orn]K([AEEA-γGlu-C18 diacid])AQ[αMe4Pal]EFI[dE][αMeY]LVEGGPSSGAPPPSGS-NH2 [Example 768]		5.64		8.58	7.48		10.53	7.99	9.59			
Y[Aib]Q[dA]T[αMePhe(2-F)]TSD[4Pal]SI[αMeL]LD[Orn]K([AEEA-γGlu-C18 diacid])AQ[αMe4Pal][Orn]FI[dE][αMeY]LIEGGPSSGEPPPESE-NH2 [Example 765]		6.95		7.35	7.58		10.19	9.02	9.60			
Y[Aib]Q[dA]T[αMePhe(2-F)]TSD[4Pal][αMeS]I[αMeL]LD[Orn]K([AEEA-γGlu-C18 diacid])AQ[Aib]EFI[dE][αMeY]LIEGGPSSGAPPPSGS-NH2 [Example 1203]		6.36		8.07	7.41					10.11	8.59	9.53
[NMeY][Aib]QGTFTSD[4Pal][αMeS]I[αMeL]LD[Orn]K([dE-γGlu-C18 diacid])AQ[αMe4Pal]QFIQ[αMeY]LIE[Aib]GPSSGAPPPSGGGE-NH2 [Example 1135]	10.90	6.85	8.75	9.06	7.20	9.13						
